Measurements: PubChem BioAssay AID2060501 (Molecular Pharmacology Branch, DTP, NCI, 2025)

System: 282377-053-R-J1-PDC complex spheroids, viability
Assay: Anticancer human tumor 282377-053-R-J1-PDC patient-derived colon adenocarcinoma cell line growth inhibition [GQUAD]
Settings: for IC50: curve of first compound; for viability, T/C: stronger effect = lower value; active = viability on the fitted dose curve at most 10% of control; inactive = the rest
In short: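 Viability of tumor cells grown as complex spheroids with endothelial and stromal cells, exposed to drug combinations. Top concentration at or near clinical Cmax (else 10 microM), diluted in half-log increments.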

[1] = second compound 0.0316 µM, first compound 0.0316 µM
[2] = second compound 0.0316 µM, first compound 0.316 µM
[3] = second compound 0.1 µM, first compound 0.0316 µM
[4] = second compound 0.1 µM, first compound 0.316 µM
[5] = second compound 0.316 µM, first compound 0.0316 µM
[6] = second compound 0.316 µM, first compound 0.316 µM
[7] = second compound 1 µM, first compound 0.0316 µM
[8] = second compound 1 µM, first compound 0.316 µM
[9] = second compound 3.16 µM, first compound 0.0316 µM
[10] = second compound 3.16 µM, first compound 0.316 µM
[11] = second compound 10 µM, first compound 0.0316 µM
[12] = second compound 10 µM, first compound 0.316 µM
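Note: spheroids exposed to compounds for 7 days before readout.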
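Throughout, for viability, T/C: percent of vehicle DMSO control viability with 100% = untreated-like growth.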

C=CC(=O)N1CCN(c2nc(=O)n(-c3c(C)ccnc3C(C)C)c3nc(-c4c(O)cccc4F)c(F)cc23)C(C)C1 (centres undefined) + Cc1[nH]c2ccc(F)cc2c1-c1nc2c3cccnc3c3ncccc3c2[nH]1
> 10000 nM: IC50 (second compound 0.0316 µM) | IC50 (second compound 0.1 µM) | IC50 (second compound 0.316 µM) | IC50 (second compound 1 µM)
< 31.6 nM: IC50 (second compound 10 µM)
inactive: viability, T/C [1] 106% | viability, T/C (second compound 0.0316 µM, first compound 0.1 µM) 102% | viability, T/C [2] 125% | viability, T/C (second compound 0.0316 µM, first compound 1 µM) 108% | viability, T/C (second compound 0.0316 µM, first compound 3.16 µM) 126% | viability, T/C (second compound 0.0316 µM, first compound 10 µM) 80.9% | viability, T/C [3] 122% | viability, T/C (second compound 0.1 µM, first compound 0.1 µM) 110% | viability, T/C [4] 98.9% | viability, T/C (second compound 0.1 µM, first compound 1 µM) 100% | viability, T/C (second compound 0.1 µM, first compound 3.16 µM) 100% | viability, T/C (second compound 0.1 µM, first compound 10 µM) 89.9% | viability, T/C [5] 109% | viability, T/C (second compound 0.316 µM, first compound 0.1 µM) 110% | viability, T/C [6] 87.1% | viability, T/C (second compound 0.316 µM, first compound 1 µM) 122% | viability, T/C (second compound 0.316 µM, first compound 3.16 µM) 105% | viability, T/C (second compound 0.316 µM, first compound 10 µM) 99.8% | viability, T/C [7] 114% | viability, T/C (second compound 1 µM, first compound 0.1 µM) 98.1% | viability, T/C [8] 103% | viability, T/C (second compound 1 µM, first compound 1 µM) 106% | viability, T/C (second compound 1 µM, first compound 3.16 µM) 119% | viability, T/C (second compound 1 µM, first compound 10 µM) 103% | viability, T/C [9] 82.1% | viability, T/C (second compound 3.16 µM, first compound 0.1 µM) 108% | viability, T/C [10] 71.5% | viability, T/C (second compound 3.16 µM, first compound 1 µM) 75.9% | viability, T/C (second compound 3.16 µM, first compound 3.16 µM) 98.4% | viability, T/C (second compound 3.16 µM, first compound 10 µM) 48.8% | viability, T/C [11] 28.3% | viability, T/C (second compound 10 µM, first compound 0.1 µM) 32% | viability, T/C [12] 37.6% | viability, T/C (second compound 10 µM, first compound 1 µM) 40% | viability, T/C (second compound 10 µM, first compound 3.16 µM) 31% | viability, T/C (second compound 10 µM, first compound 10 µM) 27.2%
9670 nM: IC50 (second compound 3.16 µM)

CCc1c2c(nc3ccc(O)cc13)-c1cc3c(c(=O)n1C2)COC(=O)[C@]3(O)CC + Cc1[nH]c2ccc(F)cc2c1-c1nc2c3cccnc3c3ncccc3c2[nH]1
3.28 nM: IC50 (second compound 3.16 µM)
35.2 nM: IC50 (second compound 0.316 µM)
active: viability, T/C (second compound 10 µM, first compound 0.0999 µM) 9.45% | viability, T/C [12] 8.4%
20.5 nM: IC50 (second compound 1 µM)
inactive: viability, T/C (second compound 0.0316 µM, first compound 0.000999 µM) 125% | viability, T/C (second compound 0.0316 µM, first compound 0.00316 µM) 79.7% | viability, T/C (second compound 0.0316 µM, first compound 0.00999 µM) 65.6% | viability, T/C [1] 54.4% | viability, T/C (second compound 0.0316 µM, first compound 0.0999 µM) 37.9% | viability, T/C [2] 29.4% | viability, T/C (second compound 0.1 µM, first compound 0.000999 µM) 112% | viability, T/C (second compound 0.1 µM, first compound 0.00316 µM) 99.3% | viability, T/C (second compound 0.1 µM, first compound 0.00999 µM) 64% | viability, T/C [3] 49.8% | viability, T/C (second compound 0.1 µM, first compound 0.0999 µM) 34.2% | viability, T/C [4] 25.5% | viability, T/C (second compound 0.316 µM, first compound 0.000999 µM) 107% | viability, T/C (second compound 0.316 µM, first compound 0.00316 µM) 83.3% | viability, T/C (second compound 0.316 µM, first compound 0.00999 µM) 64.4% | viability, T/C [5] 47.9% | viability, T/C (second compound 0.316 µM, first compound 0.0999 µM) 46.8% | viability, T/C [6] 26.9% | viability, T/C (second compound 1 µM, first compound 0.000999 µM) 87.2% | viability, T/C (second compound 1 µM, first compound 0.00316 µM) 77.6% | viability, T/C (second compound 1 µM, first compound 0.00999 µM) 52.6% | viability, T/C [7] 47% | viability, T/C (second compound 1 µM, first compound 0.0999 µM) 36.6% | viability, T/C [8] 25.9% | viability, T/C (second compound 3.16 µM, first compound 0.000999 µM) 71.5% | viability, T/C (second compound 3.16 µM, first compound 0.00316 µM) 51% | viability, T/C (second compound 3.16 µM, first compound 0.00999 µM) 33.4% | viability, T/C [9] 25.9% | viability, T/C (second compound 3.16 µM, first compound 0.0999 µM) 17.1% | viability, T/C [10] 11.8% | viability, T/C (second compound 10 µM, first compound 0.000999 µM) 21.1% | viability, T/C (second compound 10 µM, first compound 0.00316 µM) 29.2% | viability, T/C (second compound 10 µM, first compound 0.00999 µM) 12.5% | viability, T/C [11] 8.86%
< 0.999 nM: IC50 (second compound 10 µM)
27.8 nM: IC50 (second compound 0.0316 µM)
26.7 nM: IC50 (second compound 0.1 µM)
